In PMC11941939, “Tackling Prostate Cancer with Theranostic E5B9-Bombesin Target Modules (TMs): From Imaging to Treatment with UniCAR T-Cells” (International Journal of Molecular Sciences, 2025):
Where two headings read alike, the source gives them in different places. Starred links: 1 amine or outer side, 2 acyl side, 3 side chain; linkers in the order of their positions; H or OH if unused. Positions of bridges follow the written chain, without caps; N, C: chain ends. Non-standard residues stand in square brackets, D forms with d. Residues, ends and D or L forms follow the SMILES beside them. Chains are numbered I, II in the order given. *: point of attachment. NOTA(2S-Bn(4-NHCS)) = O=C(O)CN1CCN(CC(=O)O)C[C@H](Cc2ccc(NC(=S)*)cc2)N(CC(=O)O)CC1; X1 = O=C([C@H](CCCCn1nnc2c1-c1ccccc1CN([*:3])c1ccccc1-2)N[*:1])[*:2]; X2 = O=C(CCOCCOCCOCCOCCNC(=O)CCN1C(=O)CC([*:1])C1=O)NCCC(=O)[*:2]; γ4hIle = CC[C@H](C)[C@@H](CCC(=O)[*:2])N[*:1]; Tle = CC(C)(C)[C@H](N)C(=O)O; Ava = NCCCCC(=O)O; Sar = CNCC(=O)O

Key:
LNCaP cancer cells = type: cell-based, human; conditions: 48 h
Experimental: (§1) Standard chromium (^51Cr)-release cytotoxicity assays were performed to assess the killing of tumor cells by redirected UniCAR T-cells as previously described. Briefly, chromium-labeled target cells were incubated for 48 h with UniCAR T-cells at an effector-to-target cell (E:T) ratio of 5:1 in the absence or presence of different TM concentrations. The radioactive signal in the supernatants was measured using a MicroBeta Microplate Counter (PerkinElmer, Rodgau, Germany).

PC3 cancer cells = type: cell-based, human; conditions: 48 h
Experimental: as §1

GRPR = target: T1, GRPR (Homo sapiens, UniProt P30550); assay: Competitive binding assay against 125I-Tyr4-bombesin in PC3 cells
T1 construct: Both cell lines express GRPR; endogenous in cells; host or cells: PC-3 cells (dimeric TM also tested in LNCaP cells)
Experimental: Then, ^125I-Tyr^4-BBN (0.05 nM final concentration) was added to each well, and the plates were incubated for 2 h at 4 °C. The cells were then rinsed twice with ice-cold phosphate-buffered saline (PBS) and harvested. The cells were placed on a Packard II gamma counter (PerkinElmer, Boston, MA, USA) to determine the cell-associated radioactivity. After decay correction, data were plotted using GraphPad Prism 9 Software (San Diego, CA, USA) using the sigmoidal dose–response equation, with counts per minute (cpm) of radioactivity bound versus the log of the concentration of NOTA-E5B9-BBN2 monomeric or dimeric TM for the determination of IC50 values. NOTA-E5B9-BBN2 dimeric TM was also tested in LNCaP cells. Gastrin-releasing peptide (GRP) served as the control.

[1] = Dynamic PET imaging, tumor uptake in LNCaP xenografts; type: in vivo, mouse; conditions: male, BALB/c Nude, mouse, in vivo, iv, total radioactivity
Experimental: (§2) For PET experiments and as prostate cancer xenograft models, male PC3 and LNCaP tumor-bearing BALB/c Nude mice were used (body weight: 22−24 g, Charles River Laboratories, Saint-Constant, QC, Canada). To generate the tumor xenografts, about 5−6 × 10^6 PC3 cells in 100 μL of PBS or 20−25 × 10^6 LNCaP cells in 200 μL of PBS/Matrigel (50/50) were subcutaneously injected into the left shoulder of male BALB/c Nude mice. For the androgen-dependent LNCaP model, a 1.5 mg pellet containing dehydroepiandrosterone DHEA (60-day release; Innovative Research of America, Sarasota, FL, U.S.A.) was implanted subcutaneously into the upper right flank shortly before LNCaP cell injection. PC3 tumors and LNCaP tumors reached sizes of ∼300−500 mm^3 after 3−5 weeks and 6−8 weeks, respectively, and were used for the in vivo experiments. PET imaging of E5B9-^68Ga-NOTA-BBN2 monomeric and dimeric TMs was performed on an INVEON® PET/CT scanner (Siemens Preclinical Solutions, Knoxville, TN, USA). Prior to radiotracer injection, mice were anesthetized through inhalation of isoflurane in 40% oxygen/60% nitrogen (gas flow 1 L/min), and body temperature was kept constant at 37 °C. The mice were placed in a prone position in the center of the field of view. A transmission scan for attenuation correction was not acquired. Mice were injected with 4−8 MBq of E5B9-^68Ga-NOTA-BBN2 or E5B9-^68Ga-NOTA-(BBN2)2 in 150 μL 10% EtOH/saline solution through a tail vein catheter. For blocking studies, PC3- and LNCaP-tumor-bearing […] mice were pre-dosed i.v. with 300 μg of Ava-BBN2 (15 min prior to radiotracer injection) in 50 uL saline. Data acquisition was performed over 60 min in 3D list mode. The dynamic list mode data were sorted into sinograms with 54 time frames (10 × 2, 8 × 5, 6 × 10, 6 × 20, 8 × 60, 10 × 120, 6 × 300 s). The frames were reconstructed using maximum a posteriori (MAP) as the reconstruction mode. No correction for partial volume effects was applied. The image files were processed using the ROVER v2.0.51 software (ABX GmbH, Radeberg, Germany). […] ROIs covered all visible tumor mass of the subcutaneous tumors, and the thresholds were defined by 50% of the maximum radioactivity uptake level. Mean standardized uptake values [SUVmean = (activity/mL tissue)/(injected activity/body weight), […]] were calculated for each ROI, and time−activity curves (TACs) were generated. For each experimental group (different radiotracers and mouse tumor models as well as control and blocking experiments), n = 3–6 mice were measured. […] Blocking experiments were conducted in the same mice: first, a control scan was measured and then repeated 1–2 days after in the presence of a blocking concentration of 300 μg of Ava-BBN2. All semi-quantified PET data are presented as means ± SEM. […]

[2] = Dynamic PET imaging, tumor uptake in PC3 xenografts; type: in vivo, mouse; conditions: male, BALB/c Nude, mouse, in vivo, iv, total radioactivity
Experimental: as §2

PC3 tumors = assay: as above; type: in vivo, mouse; conditions: PC3 tumors, pre-dosing i.v. with 300 µg Ava-BBN2 15 min before radiotracer, n = 3, p < 0.05
Experimental: as §2

[3] = competition against 125I-Tyr4-bombesin (0.05 nM) in PC3 cells, 2 h at 4 °C, triplicates, gamma counter, mean ± SEM, read-out: IC50 (competition binding to GRPR)

T1 sequence (P30550 whole entry): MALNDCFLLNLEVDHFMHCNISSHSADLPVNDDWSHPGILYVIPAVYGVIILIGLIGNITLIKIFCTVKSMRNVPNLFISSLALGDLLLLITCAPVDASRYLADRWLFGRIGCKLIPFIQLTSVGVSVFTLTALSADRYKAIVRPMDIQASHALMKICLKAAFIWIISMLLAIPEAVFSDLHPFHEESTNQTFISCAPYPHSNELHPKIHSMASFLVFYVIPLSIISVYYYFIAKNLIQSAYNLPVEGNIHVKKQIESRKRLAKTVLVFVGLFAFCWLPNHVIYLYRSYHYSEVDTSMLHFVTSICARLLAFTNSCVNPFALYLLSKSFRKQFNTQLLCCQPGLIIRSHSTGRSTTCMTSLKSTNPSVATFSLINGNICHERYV

| Structure (SMILES) | IC50 (GRPR; [3]) | SUV at 1 h [1] | SUV at 1 h [2] | also measured |
| --- | --- | --- | --- | --- |
| CC[C@H](C)[C@@H](CCC(=O)N[C@H](C(N)=O)C(C)(C)C)NC(=O)[C@H](Cc1c[nH]cn1)NC(=O)CN(C)C(=O)[C@@H](NC(=O)[C@H](C)NC(=O)[C@H](Cc1c[nH]c2ccccc12)NC(=O)[C@H](CCC(N)=O)NC(=O)[C@H](CCCCn1nnc2c1-c1ccccc1CN(C(=O)CCNC(=O)CCOCCOCCOCCOCCNC(=O)CCN1C(=O)CC(SC[C@H](NC(=O)[C@H](Cc3ccc(O)cc3)NC(=O)[C@H](CCC(=O)O)NC(=O)[C@H](CC(=O)O)NC(=O)[C@@H](NC(=O)[C@@H](NC(=O)[C@H](CCC(=O)O)NC(=O)[C@@H]3CCCN3C(=O)[C@H](CC(C)C)NC(=O)[C@@H]3CCCN3C(=O)[C@H](CCCCN)NC(=O)[C@@H](N)CO)C(C)C)[C@@H](C)O)C(=O)O)C1=O)c1ccccc1-2)NC(=O)CCCCNC(=S)Nc1ccc(C[C@H]2CN(CC(=O)O)CCN(CC(=O)O)CCN2CC(=O)O)cc1)C(C)C (stereo partly drawn) [E5B9-NOTA-BBN2 TM] (I: H-SKPLPEVTDEYC-OH / II: {NOTA(2S-Bn(4-NHCS))-Ava}-[X1]QWAV[Sar]H[γ4hIle][Tle]-NH2; linker I:12-II:1 via X2) | 190 ± 0.04 nM | – | – | EC50 (LNCaP cancer cells): 29.8 nM; EC50 (PC3 cancer cells): 32 nM |
| CSCC[C@H](NC(=O)[C@H](CC(C)C)NC(=O)[C@H](Cc1c[nH]cn1)NC(=O)CNC(=O)[C@@H](NC(=O)[C@H](C)NC(=O)[C@H](Cc1c[nH]c2ccccc12)NC(=O)[C@H](Cc1c[nH]cn1)NC(=O)[C@H](CC(N)=O)NC(=O)CNC(=O)[C@H](CCCN=C(N)N)NC(=O)[C@@H]1CCCN1C(=O)[C@H](Cc1ccc(O)cc1)NC(=O)[C@H](CCSC)NC(=O)[C@H](CCCCN)NC(=O)[C@@H](NC(=O)[C@H](CC(C)C)NC(=O)[C@@H](NC(=O)[C@@H](NC(=O)CNC(=O)CNC(=O)CNC(=O)[C@H](C)NC(=O)[C@@H]1CCCN1C(=O)[C@H](CC(C)C)NC(=O)[C@@H]1CCCN1C(=O)[C@@H](N)C(C)C)[C@@H](C)O)C(C)C)[C@@H](C)O)C(C)C)C(N)=O [GRP, gastrin-releasing peptide, reference compound] | – | – | – | IC50 (GRPR): 0.15 ± 0.05 nM |
| CC[C@H](C)[C@@H](CCC(=O)N[C@H](C(N)=O)C(C)(C)C)NC(=O)[C@H](Cc1c[nH]cn1)NC(=O)CN(C)C(=O)[C@@H](NC(=O)[C@H](C)NC(=O)[C@H](Cc1c[nH]c2ccccc12)NC(=O)[C@H](CCC(N)=O)NC(=O)CCCCNC(=O)CC[C@H](NC(=O)[C@H](CCCCn1nnc2c1-c1ccccc1CN(C(=O)CCNC(=O)CCOCCOCCOCCOCCNC(=O)CCN1C(=O)CC(SC[C@H](NC(=O)[C@H](Cc3ccc(O)cc3)NC(=O)[C@H](CCC(=O)O)NC(=O)[C@H](CC(=O)O)NC(=O)[C@@H](NC(=O)[C@@H](NC(=O)[C@H](CCC(=O)O)NC(=O)[C@@H]3CCCN3C(=O)[C@H](CC(C)C)NC(=O)[C@@H]3CCCN3C(=O)[C@H](CCCCN)NC(=O)[C@@H](N)CO)C(C)C)[C@@H](C)O)C(=O)O)C1=O)c1ccccc1-2)NC(=O)CCCCNC(=S)Nc1ccc(C[C@H]2CN(CC(=O)O)CCN(CC(=O)O)CCN2CC(=O)O)cc1)C(=O)NCCCCC(=O)N[C@@H](CCC(N)=O)C(=O)N[C@@H](Cc1c[nH]c2ccccc12)C(=O)N[C@@H](C)C(=O)N[C@H](C(=O)N(C)CC(=O)N[C@@H](Cc1c[nH]cn1)C(=O)N[C@H](CCC(=O)N[C@H](C(N)=O)C(C)(C)C)[C@@H](C)CC)C(C)C)C(C)C (stereo partly shown) [E5B9-NOTA-(BBN2)2 TM] | 0.7 ± 0.1 nM | – | – | – |
| CC[C@H](C)[C@@H](CCC(=O)N[C@H](C(N)=O)C(C)(C)C)NC(=O)[C@H](Cc1c[nH]cn1)NC(=O)CN(C)C(=O)[C@@H](NC(=O)[C@H](C)NC(=O)[C@H](Cc1c[nH]c2ccccc12)NC(=O)[C@H](CCC(N)=O)NC(=O)CCCCNC(=S)Nc1ccc(C[C@H]2CN(CC(=O)O)CCN(CC(=O)O)CCN2CC(=O)O)cc1)C(C)C [^68Ga-NOTA-BBN2, metal not drawn, reference compound] ({NOTA(2S-Bn(4-NHCS))-Ava}-QWAV[Sar]H[γ4hIle][Tle]-NH2; N-terminus and C-terminus assumed) | – | 0.38 ± 0.02 SUV | 0.46 ± 0.05 SUV | – |
| CC[C@H](C)[C@@H](CCC(=O)N[C@H](C(N)=O)C(C)(C)C)NC(=O)[C@H](Cc1c[nH]cn1)NC(=O)CN(C)C(=O)[C@@H](NC(=O)[C@H](C)NC(=O)[C@H](Cc1c[nH]c2ccccc12)NC(=O)[C@H](CCC(N)=O)NC(=O)[C@H](CCCCn1nnc2c1-c1ccccc1CN(C(=O)CCNC(=O)CCOCCOCCOCCOCCNC(=O)CCN1C(=O)CC(SC[C@H](NC(=O)[C@H](Cc3ccc(O)cc3)NC(=O)[C@H](CCC(=O)O)NC(=O)[C@H](CC(=O)O)NC(=O)[C@@H](NC(=O)[C@@H](NC(=O)[C@H](CCC(=O)O)NC(=O)[C@@H]3CCCN3C(=O)[C@H](CC(C)C)NC(=O)[C@@H]3CCCN3C(=O)[C@H](CCCCN)NC(=O)[C@@H](N)CO)C(C)C)[C@@H](C)O)C(=O)O)C1=O)c1ccccc1-2)NC(=O)CCCCNC(=S)Nc1ccc(C[C@H]2CN(CC(=O)O)CCN(CC(=O)O)CCN2CC(=O)O)cc1)C(C)C (stereo partly drawn) [monomeric ^68Ga-BBN2 TM, metal not drawn] (I: H-SKPLPEVTDEYC-OH / II: {NOTA(2S-Bn(4-NHCS))-Ava}-[X1]QWAV[Sar]H[γ4hIle][Tle]-NH2; linker I:12-II:1 via X2) | – | 0.44 ± 0.11 SUV | 0.44 ± 0.01 SUV | in vivo blocking of tumor uptake (PC3 tumors): 39 ± 9% |
